# Legend:
# Type in all cases: functional
# MCF7 = test: Growth inhibition of human MCF7 cells assessed as cell growth at 1 uM incubated for 48 hrs by sulforhodamine B assay relative to control; conditions: MCF7, 48 h, read-out: Activity
# CCRF-CEM = test: Growth inhibition of human CCRF-CEM cells incubated for 48 hrs by sulforhodamine B assay
# OVCAR-5 = test: Growth inhibition of human OVCAR5 cells assessed as cell growth at 0.1 uM incubated for 48 hrs by sulforhodamine B assay relative to control; conditions: OVCAR-5, 48 h, read-out: Activity
# KM12 = test: Growth inhibition of human KM12 cells assessed as cell growth at 100 uM incubated for 48 hrs by sulforhodamine B assay relative to control; conditions: KM12, 48 h, read-out: Activity
# NCI-H226 = test: Growth inhibition of human NCI-H226 cells assessed as cell growth at 0.01 uM incubated for 48 hrs by sulforhodamine B assay relative to control; conditions: NCI-H226, 48 h, read-out: Activity
# HT-29 = test: Growth inhibition of human HT-29 cells assessed as cell growth at 1 uM incubated for 48 hrs by sulforhodamine B assay relative to control; conditions: HT-29, 48 h, read-out: Activity
# PC-3 = test: Growth inhibition of human PC3 cells assessed as cell growth at 1 uM incubated for 48 hrs by sulforhodamine B assay relative to control; conditions: PC-3, 48 h, read-out: Activity
# UACC-62 = test: Growth inhibition of human UACC62 cells assessed as cell growth at 1 uM incubated for 48 hrs by sulforhodamine B assay relative to control; conditions: UACC-62, 48 h, read-out: Activity
# HOP-62 = test: Growth inhibition of human HOP62 cells incubated for 48 hrs by sulforhodamine B assay; conditions: HOP-62, 48 h
# NCI-H23 [1] = test: Growth inhibition of human NCI-H23 cells assessed as cell growth at 1 uM incubated for 48 hrs by sulforhodamine B assay relative to control; conditions: NCI-H23, 48 h, read-out: Activity
# HCC 2998 = test: Growth inhibition of human HCC2998 cells assessed as cell growth at 0.01 uM incubated for 48 hrs by sulforhodamine B assay relative to control; conditions: HCC 2998, 48 h, read-out: Activity
# RPMI-8226 [2] = test: Growth inhibition of human RPMI8226 cells incubated for 48 hrs by sulforhodamine B assay; conditions: RPMI-8226, 48 h
# SK-MEL-2 = test: Growth inhibition of human SK-MEL-2 cells incubated for 48 hrs by sulforhodamine B assay; conditions: SK-MEL-2, 48 h
# SK-MEL-28 [3] = test: Growth inhibition of human SK-MEL-28 cells incubated for 48 hrs by sulforhodamine B assay; conditions: SK-MEL-28, 48 h
# EKVX = test: Growth inhibition of human EKVX cells assessed as cell growth at 0.1 uM incubated for 48 hrs by sulforhodamine B assay relative to control; conditions: read-out: Activity
# RPMI-8226 [4] = test: Growth inhibition of human RPMI8226 cells assessed as cell growth at 1 uM incubated for 48 hrs by sulforhodamine B assay relative to control; conditions: RPMI-8226, 48 h, read-out: Activity
# M14 = test: Growth inhibition of human M14 cells assessed as cell growth at 1 uM incubated for 48 hrs by sulforhodamine B assay relative to control; conditions: M14, 48 h, read-out: Activity
# HL-60(TB) = test: Growth inhibition of human HL-60(TB) cells incubated for 48 hrs by sulforhodamine B assay; conditions: HL-60, 48 h
# UO-31 = test: Growth inhibition of human UO31 cells assessed as cell growth at 100 uM incubated for 48 hrs by sulforhodamine B assay relative to control; conditions: UO-31, 48 h, read-out: Activity
# SK-MEL-28 [5] = test: Growth inhibition of human SK-MEL-28 cells assessed as cell growth at 1 uM incubated for 48 hrs by sulforhodamine B assay relative to control; conditions: SK-MEL-28, 48 h, read-out: Activity
# A498 [6] = test: Growth inhibition of human A498 cells assessed as cell growth at 0.1 uM incubated for 48 hrs by sulforhodamine B assay relative to control; conditions: A498, 48 h, read-out: Activity
# SR = test: Growth inhibition of human SR cells assessed as cell growth at 100 uM incubated for 48 hrs by sulforhodamine B assay relative to control; conditions: read-out: Activity
# T47D = test: Growth inhibition of human T47D cells incubated for 48 hrs by sulforhodamine B assay
# COLO 205 = test: Growth inhibition of human COLO205 cells assessed as cell growth at 0.1 uM incubated for 48 hrs by sulforhodamine B assay relative to control; conditions: COLO 205, 48 h, read-out: Activity
# NCI-H23 [7] = test: Growth inhibition of human NCI-H23 cells incubated for 48 hrs by sulforhodamine B assay; conditions: NCI-H23, 48 h
# NCI-H522 = test: Growth inhibition of human NCI-H522 cells assessed as cell growth at 0.1 uM incubated for 48 hrs by sulforhodamine B assay relative to control; conditions: NCI-H522, 48 h, read-out: Activity
# RXF 393 = test: Growth inhibition of human RXF393 cells assessed as cell growth at 1 uM incubated for 48 hrs by sulforhodamine B assay relative to control; conditions: RXF 393, 48 h, read-out: Activity
# A498 [8] = test: Growth inhibition of human A498 cells assessed as cell growth at 0.01 uM incubated for 48 hrs by sulforhodamine B assay relative to control; conditions: A498, 48 h, read-out: Activity
# Hs-578T = test: Growth inhibition of human Hs 578T cells assessed as cell growth at 100 uM incubated for 48 hrs by sulforhodamine B assay relative to control; conditions: read-out: Activity
# [9] = read-out: LC50 (the source's name)
# [10] = read-out: pLC50 (the source's name) (converted)
smiles,measurement,setting,value
c1ccc2[nH]c(-c3ccc(-c4nccc5c4[nH]c4ccccc45)cc3)nc2c1,growth at 1 µM,MCF7,91%
same,GI50,CCRF-CEM; read-out: GI50,3.12 µM
same,CC50,CCRF-CEM; [9],> 1 µM
same,TGI,CCRF-CEM; read-out: TGI,9.12 µM
same,GI50,CCRF-CEM; read-out: pGI50 (converted),3.09 µM
same,CC50,CCRF-CEM; [10],> 100 µM
same,TGI,CCRF-CEM; read-out: pTGI (converted),9.12 µM
same,growth at 0.1 µM,OVCAR-5,90%
same,growth at 100 µM,KM12,76%
same,growth at 0.01 µM,NCI-H226,93%
same,growth at 1 µM,HT-29,106%
same,growth at 1 µM,PC-3,95%
same,growth at 1 µM,UACC-62,80%
same,GI50,HOP-62; read-out: GI50,2.8 µM
same,LC50 (concentration killing 50% of cells),HOP-62; read-out: LC50,5.31 µM
same,GI50,HOP-62; read-out: pGI50 (converted),2.82 µM
same,LC50 (concentration killing 50% of cells),HOP-62; read-out: pLC50 (converted),53.7 µM
same,TGI,HOP-62; read-out: pTGI (converted),10.7 µM
same,growth at 1 µM,NCI-H23 [1],88%
same,growth at 0.01 µM,HCC 2998,96%
same,GI50,RPMI-8226 [2]; read-out: GI50,2.48 µM
same,CC50,RPMI-8226 [2]; [9],> 1 µM
same,TGI,RPMI-8226 [2]; read-out: TGI,5.61 µM
same,GI50,RPMI-8226 [2]; read-out: pGI50 (converted),2.45 µM
same,CC50,RPMI-8226 [2]; [10],> 100 µM
same,TGI,RPMI-8226 [2]; read-out: pTGI (converted),5.62 µM
same,GI50,SK-MEL-2; read-out: GI50,1.99 µM
same,CC50,SK-MEL-2; [9],9.45 µM
same,TGI,SK-MEL-2; read-out: TGI,4.34 µM
same,GI50,SK-MEL-2; read-out: pGI50 (converted),2 µM
same,CC50,SK-MEL-2; [10],9.55 µM
same,TGI,SK-MEL-2; read-out: pTGI (converted),4.37 µM
same,GI50,SK-MEL-28 [3]; read-out: GI50,1.96 µM
same,CC50,SK-MEL-28 [3]; [9],7.2 µM
same,TGI,SK-MEL-28 [3]; read-out: TGI,3.75 µM
same,GI50,SK-MEL-28 [3]; read-out: pGI50 (converted),1.95 µM
same,CC50,SK-MEL-28 [3]; [10],7.24 µM
same,TGI,SK-MEL-28 [3]; read-out: pTGI (converted),3.72 µM
same,growth at 0.1 µM,EKVX,96%
same,growth at 1 µM,RPMI-8226 [4],106%
same,growth at 1 µM,M14,92%
same,GI50,HL-60(TB); read-out: GI50,2.03 µM
same,CC50,HL-60(TB); [9],> 1 µM
same,TGI,HL-60(TB); read-out: TGI,4.59 µM
same,GI50,HL-60(TB); read-out: pGI50 (converted),2.04 µM
same,CC50,HL-60(TB); [10],> 100 µM
same,TGI,HL-60(TB); read-out: pTGI (converted),4.57 µM
same,growth at 100 µM,UO-31,82%
same,growth at 1 µM,SK-MEL-28 [5],102%
same,growth at 0.1 µM,A498 [6],83%
same,growth at 100 µM,SR,34%
same,GI50,T47D; read-out: GI50,2.02 µM
same,CC50,T47D; [9],8.34 µM
same,TGI,T47D; read-out: TGI,6.19 µM
same,GI50,T47D; read-out: pGI50 (converted),2.04 µM
same,CC50,T47D; [10],83.2 µM
same,TGI,T47D; read-out: pTGI (converted),6.17 µM
same,growth at 0.1 µM,COLO 205,97%
same,CC50,NCI-H23 [7]; [9],8.7 µM
same,GI50,NCI-H23 [7]; read-out: pGI50 (converted),3.47 µM
same,CC50,NCI-H23 [7]; [10],87.1 µM
same,TGI,NCI-H23 [7]; read-out: pTGI (converted),17.8 µM
same,growth at 0.1 µM,NCI-H522,94%
same,growth at 1 µM,RXF 393,104%
same,growth at 0.01 µM,A498 [8],96%
same,growth at 100 µM,Hs-578T,46%
c1ccc2c3c([nH]c2c1)C(c1ccc(C2NCCc4c2[nH]c2ccccc42)cc1)NCC3 (racemic),growth at 1 µM,MCF7,22%
same,CC50,CCRF-CEM; [9],1.22 µM
same,GI50,CCRF-CEM; read-out: pGI50 (converted),0.457 µM
same,CC50,CCRF-CEM; [10],12.3 µM
same,TGI,CCRF-CEM; read-out: pTGI (converted),2.04 µM
same,growth at 0.1 µM,OVCAR-5,93%
same,growth at 100 µM,KM12,88%
same,growth at 0.01 µM,NCI-H226,97%
same,growth at 1 µM,HT-29,16%
same,growth at 1 µM,PC-3,66%
same,growth at 1 µM,UACC-62,43%
same,GI50,HOP-62; read-out: GI50,1.31 µM
same,TGI,HOP-62; read-out: TGI,2.79 µM
same,GI50,HOP-62; read-out: pGI50 (converted),1.32 µM
same,TGI,HOP-62; read-out: pTGI (converted),2.82 µM
same,growth at 1 µM,NCI-H23 [1],85%
same,growth at 0.01 µM,HCC 2998,91%
same,CC50,RPMI-8226 [2]; [9],1.23 µM
same,GI50,RPMI-8226 [2]; read-out: pGI50 (converted),0.339 µM
same,CC50,RPMI-8226 [2]; [10],12.3 µM
same,TGI,RPMI-8226 [2]; read-out: pTGI (converted),1.1 µM
same,GI50,SK-MEL-2; read-out: GI50,1.7 µM
same,CC50,SK-MEL-2; [9],7.47 µM
same,TGI,SK-MEL-2; read-out: TGI,3.57 µM
same,GI50,SK-MEL-2; read-out: pGI50 (converted),1.7 µM
same,CC50,SK-MEL-2; [10],7.41 µM
same,TGI,SK-MEL-2; read-out: pTGI (converted),3.55 µM
same,GI50,SK-MEL-28 [3]; read-out: GI50,1.68 µM
same,CC50,SK-MEL-28 [3]; [9],5.99 µM
same,TGI,SK-MEL-28 [3]; read-out: TGI,3.18 µM
same,GI50,SK-MEL-28 [3]; read-out: pGI50 (converted),1.7 µM
same,CC50,SK-MEL-28 [3]; [10],6.03 µM
same,TGI,SK-MEL-28 [3]; read-out: pTGI (converted),3.16 µM
same,growth at 0.1 µM,EKVX,90%
same,growth at 1 µM,RPMI-8226 [4],2%
same,growth at 1 µM,M14,21%
same,GI50,HL-60(TB); read-out: GI50,1.13 µM
same,CC50,HL-60(TB); [9],6.99 µM
same,TGI,HL-60(TB); read-out: TGI,2.81 µM
same,GI50,HL-60(TB); read-out: pGI50 (converted),1.12 µM
same,CC50,HL-60(TB); [10],6.92 µM
same,TGI,HL-60(TB); read-out: pTGI (converted),2.82 µM
same,growth at 100 µM,UO-31,-96%
same,growth at 1 µM,SK-MEL-28 [5],91%
same,growth at 0.1 µM,A498 [6],67%
same,growth at 100 µM,SR,-68%
same,GI50,T47D; read-out: GI50,1.31 µM
same,CC50,T47D; [9],7.13 µM
same,TGI,T47D; read-out: TGI,3.06 µM
same,GI50,T47D; read-out: pGI50 (converted),1.32 µM
same,CC50,T47D; [10],7.08 µM
same,TGI,T47D; read-out: pTGI (converted),3.09 µM
same,growth at 0.1 µM,COLO 205,94%
same,GI50,NCI-H23 [7]; read-out: GI50,1.65 µM
same,CC50,NCI-H23 [7]; [9],6.83 µM
same,TGI,NCI-H23 [7]; read-out: TGI,3.36 µM
same,GI50,NCI-H23 [7]; read-out: pGI50 (converted),1.66 µM
same,CC50,NCI-H23 [7]; [10],6.76 µM
same,TGI,NCI-H23 [7]; read-out: pTGI (converted),3.39 µM
same,growth at 0.1 µM,NCI-H522,105%
same,growth at 1 µM,RXF 393,69%
same,growth at 0.01 µM,A498 [8],73%
same,growth at 100 µM,Hs-578T,-65%

# From ChEMBL document CHEMBL4004838, “Design and synthesis of novel phenyl -1, 4-beta-carboline-hybrid molecules as potential anticancer agents” (Eur J Med Chem, 2017)
